Test results reported in the NIST ThermoML archive (doi:10.1016/j.jct.2010.02.009).
“And” between values parts separate entries of the source, which are not always exact repeats. Identical values can stand only once.

Tests used:
[1] = heat capacity at constant pressure per volume; xn = mol fraction of the nth substance listed; settings: 101 kPa, Liquid, Large sample (1 g) DSC, x1 = 0.497
[2] = refractive index (other wavelength) (dimensionless); xn = mol fraction of the nth substance listed; settings: 101 kPa, Liquid, Wavelength=632.8 nm, Standard Abbe refractometry

N#Cc1ccccc1 [benzonitrile] + CCCCCCCCC
[1]
Settings | heat capacity
278.51 K | 1795700 J/K/m3
279.06 K | 1803600 J/K/m3
279.55 K | 1808700 J/K/m3
280 K | 1811600 J/K/m3
280.41 K | 1816400 J/K/m3
280.77 K | 1824500 J/K/m3
281.11 K | 1829200 J/K/m3
281.41 K | 1830500 J/K/m3
281.68 K | 1829700 J/K/m3
281.93 K | 1835700 J/K/m3
282.15 K | 1841800 J/K/m3
282.35 K | 1845300 J/K/m3
282.53 K | 1847600 J/K/m3
282.7 K | 1849700 J/K/m3
282.85 K | 1856600 J/K/m3
282.98 K | 1859600 J/K/m3
283.1 K | 1862200 J/K/m3
283.21 K | 1866700 J/K/m3
283.31 K | 1869700 J/K/m3
283.4 K | 1868700 J/K/m3
283.49 K | 1873100 J/K/m3
283.56 K | 1868300 J/K/m3
283.69 K | 1880300 J/K/m3
283.88 K | 1913600 J/K/m3
283.95 K | 1908800 J/K/m3
284.03 K | 1934300 J/K/m3
284.09 K | 1950500 J/K/m3
284.11 K | 1960300 J/K/m3
284.12 K | 1970200 J/K/m3
284.13 K | 1977600 J/K/m3
284.15 K | 1985800 J/K/m3
284.16 K | 1998500 J/K/m3
284.18 K | 2005300 J/K/m3
284.19 K | 2006000 J/K/m3
284.2 K | 2015800 J/K/m3
284.21 K | 2022500 J/K/m3
284.22 K | 2037100 J/K/m3
284.23 K | 2046300 J/K/m3
284.24 K | 2060600 J/K/m3
284.25 K | 2071500 J/K/m3
284.26 K | 2047100 J/K/m3 [middle of 6 runs]
284.27 K | 1937800 J/K/m3 [middle of 5 runs]
284.28 K | 1815400 J/K/m3 and 1840700 J/K/m3
284.29 K | 1794400 J/K/m3
284.31 K | 1776700 J/K/m3
284.33 K | 1765400 J/K/m3
284.36 K | 1750800 J/K/m3
284.42 K | 1731200 J/K/m3
284.5 K | 1715800 J/K/m3
284.61 K | 1703600 J/K/m3
284.69 K | 1698600 J/K/m3
284.79 K | 1693000 J/K/m3
284.9 K | 1688700 J/K/m3
284.97 K | 1686600 J/K/m3
285.12 K | 1680400 J/K/m3
285.21 K | 1677900 J/K/m3
285.31 K | 1676100 J/K/m3
285.43 K | 1674300 J/K/m3
285.55 K | 1671100 J/K/m3
285.68 K | 1668100 J/K/m3
285.83 K | 1666100 J/K/m3
286 K | 1665000 J/K/m3
286.18 K | 1662900 J/K/m3
286.38 K | 1659800 J/K/m3
286.6 K | 1659100 J/K/m3
286.85 K | 1655600 J/K/m3
287.12 K | 1655500 J/K/m3
287.42 K | 1652700 J/K/m3
287.75 K | 1650500 J/K/m3
288.12 K | 1649500 J/K/m3
288.53 K | 1647700 J/K/m3
288.97 K | 1645800 J/K/m3
289.51 K | 1644500 J/K/m3
290.01 K | 1643400 J/K/m3
290.61 K | 1641800 J/K/m3
291.29 K | 1641000 J/K/m3
292.03 K | 1639400 J/K/m3
292.42 K | 1639400 J/K/m3
292.84 K | 1638700 J/K/m3
293.28 K | 1638100 J/K/m3
293.74 K | 1637800 J/K/m3
294.24 K | 1637400 J/K/m3
294.74 K | 1636900 J/K/m3
295.28 K | 1636500 J/K/m3
295.85 K | 1636400 J/K/m3
296.45 K | 1635800 J/K/m3
297.07 K | 1635800 J/K/m3
297.73 K | 1635500 J/K/m3
298.41 K | 1635100 J/K/m3
299.14 K | 1635100 J/K/m3
299.89 K | 1634900 J/K/m3
300.7 K | 1634900 J/K/m3
301.55 K | 1634800 J/K/m3
302.43 K | 1635000 J/K/m3
303.36 K | 1635100 J/K/m3
304.34 K | 1635200 J/K/m3
305.38 K | 1635400 J/K/m3
306.45 K | 1635600 J/K/m3
307.59 K | 1635800 J/K/m3
308.79 K | 1636100 J/K/m3
310.05 K | 1636600 J/K/m3
311.36 K | 1637200 J/K/m3
312.75 K | 1637800 J/K/m3
314.12 K | 1638500 J/K/m3

[2]
Settings | refractive index
278.24 K, x1 = 1 | 1.5324
279.25 K, x1 = 1 | 1.5319
281.33 K, x1 = 1 | 1.5308
282.96 K, x1 = 1 | 1.5301
284.3 K, x1 = 1 | 1.5294
285.4 K, x1 = 0.0945 | 1.4145
285.4 K, x1 = 0.2042 | 1.4234
285.4 K, x1 = 0.2947 | 1.4313
285.4 K, x1 = 0.3866 | 1.4402
285.4 K, x1 = 0.4969 | 1.452
285.4 K, x1 = 0.5967 | 1.4642
285.4 K, x1 = 0.6844 | 1.4759
285.4 K, x1 = 0.7992 | 1.4932
285.4 K, x1 = 0.865 | 1.504
285.43 K, x1 = 1 | 1.5288
